This passage reports Activity, selectivity ratio and IC50 results from ChEMBL document CHEMBL4152218, “Novel hydrazide-hydrazone and amide substituted coumarin derivatives: Synthesis, cytotoxicity screening, microarray, radiolabeling and in vivo pharmacokinetic studies” (Eur J Med Chem, 2018).

Each structure is given as a SMILES string.

In data set [1] the test system is hTERT-BJ. The experiment in a line: Cytotoxicity against hTERT-BJ cells at 25 uM after 48 hrs by resazurin dye-based fluorescence assay relative to control. The conditions noted are these: human. The class given is cell-based. (The colour change of resazurin is a common sign of viable cells or microbes.)
Data set [2] concerns HepG2. The experiment in a line: Induction of apoptosis in human HepG2 cells assessed as increase in caspase-3/7 activity after 24 hrs by Caspase-Glo 3/7 luminescence assay. Format: functional, cell-based.
In data set [3] the test system is TERT-RPE1. In words: Cytotoxicity against hTERT-RPE1 cells at 25 uM after 48 hrs by resazurin dye-based fluorescence assay relative to control. The class given is cell-based. The conditions noted are these: human, tert-rpe1, 48 h.
Data set [4] can be described thus: Selectivity index, ratio of IC50 for hTERT-RPE1 cells to IC50 for human HepG2 cells. Format: toxicity. As to conditions: hTERT-RPE1 cells versus HepG2 cells, read-out: Ratio IC50.
For data set [5], the system named is TERT-RPE1. In words: Cytotoxicity against hTERT-RPE1 cells at 12.50 uM after 48 hrs by resazurin dye-based fluorescence assay relative to control. The class given is cell-based. As to conditions: human, tert-rpe1, 48 h, 12.5 µM.
The test system of data set [6] is hTERT-BJ. The experiment in a line: Cytotoxicity against hTERT-BJ cells at 50 uM after 48 hrs by resazurin dye-based fluorescence assay relative to control. Format: cell-based. The conditions noted are these: human.
Data set [7] can be described thus: Selectivity index, ratio of IC50 for hTERT-BJ cells to IC50 for human HepG2 cells. The class given is toxicity. The conditions noted are these: hTERT-BJ cells versus HepG2 cells, read-out: Ratio IC50.
Data set [8] relates to hTERT-BJ. The experiment in a line: Cytotoxicity against hTERT-BJ cells after 48 hrs by resazurin dye-based fluorescence assay. The class given is cell-based. The conditions noted are these: Homo sapiens.
For a further data set, the system named is CCRF-CEM. The experiment in a line: Antiproliferative activity against human CCRF-CEM cells after 48 hrs by resazurin dye-based fluorescence assay. Format: functional, cell-based.
In data set [9] the test system is hTERT-BJ. In words: Cytotoxicity against hTERT-BJ cells at 12.50 uM after 48 hrs by resazurin dye-based fluorescence assay relative to control. The class given is cell-based. As to conditions: human, 12.5 µM.
Data set [10] is described as follows: Selectivity index, ratio of IC50 for hTERT-RPE1 cells to IC50 for human CCRF-CEM cells. As to conditions: hTERT-RPE1 cells versus CCRF-CEM cells, read-out: Ratio IC50. Format: toxicity.
Data set [11] is described as follows: Selectivity index, ratio of IC50 for hTERT-BJ cells to IC50 for human CCRF-CEM cells. The conditions noted are these: hTERT-BJ cells versus CCRF-CEM cells, read-out: Ratio IC50. The class given is toxicity.
Data set [12] has as its system HepG2. In words: Antiproliferative activity against human HepG2 cells after 48 hrs by resazurin dye-based fluorescence assay. Format: functional, cell-based. The conditions noted are these: HepG2, 48 h.
In data set [13] the test system is hTERT-BJ. The experiment in a line: Cytotoxicity against hTERT-BJ cells at 6.25 uM after 48 hrs by resazurin dye-based fluorescence assay relative to control. Format: cell-based. As to conditions: human.
For data set [14], the system named is TERT-RPE1. The experiment in a line: Cytotoxicity against hTERT-RPE1 cells at 6.25 uM after 48 hrs by resazurin dye-based fluorescence assay relative to control. Format: cell-based. As to conditions: human, tert-rpe1, 48 h.
Data set [15] has as its system TERT-RPE1. In words: Cytotoxicity against hTERT-RPE1 cells at 50 uM after 48 hrs by resazurin dye-based fluorescence assay relative to control. The conditions noted are these: human, tert-rpe1, 48 h. The class given is cell-based.
Data set [16] concerns TERT-RPE1. In words: Cytotoxicity against hTERT-RPE1 cells after 48 hrs by resazurin dye-based fluorescence assay. Format: cell-based. As to conditions: Homo sapiens, RPE-1, 48 h.
The nature of data set [17]: Selectivity index, ratio of IC50 for hTERT-RPE1 cells to IC50 for human PANC1 cells. The class given is toxicity. The conditions noted are these: hTERT-RPE1 cells versus PANC1 cells, read-out: Ratio IC50.
Data set [18] relates to PANC-1. The experiment in a line: Induction of apoptosis in human PANC1 cells assessed as increase in caspase-3/7 activity after 24 hrs by Caspase-Glo 3/7 luminescence assay. Format: functional, cell-based.
Data set [19] in a line: Selectivity index, ratio of IC50 for hTERT-BJ cells to IC50 for human PANC1 cells. Format: toxicity. As to conditions: hTERT-BJ cells versus PANC1 cells, read-out: Ratio IC50.
The test system of data set [20] is PANC-1. In words: Antiproliferative activity against human PANC1 cells after 48 hrs by resazurin dye-based fluorescence assay. Format: functional, cell-based. The conditions noted are these: PANC-1, 48 h.

For the compound `O=C(N/N=C/c1ccncc1)c1cc2cc(Br)ccc2oc1=O`, the Activity in the data set on hTERT-BJ [1] was 1.37%; with HepG2 [2] it was “Dose-dependent effect”; with TERT-RPE1 [3] it was 34.5%; in the data set with TERT-RPE1 [5], 17.16%; with hTERT-BJ [6], 2.52%; in the data set on hTERT-BJ [9], 0.2%. The Activity in the data set with hTERT-BJ [13] was 0.6%; in the data set on TERT-RPE1 [14], 9.63%; in the data set with TERT-RPE1 [15], 39.96%; with PANC-1 [18], “Dose-dependent effect”. Also, the selectivity ratio in [4] is greater than 10.2; in data set [7] it was greater than 10.2; in [10], greater than 7.88; in data set [11], greater than 7.88; in data set [17] it was greater than 1.94; in data set [19] it was greater than 1.94. Besides, the IC50 – broadly, the concentration that inhibits the measured activity by half – in the data set on hTERT-BJ [8] was greater than 50 µM; in the data set on CCRF-CEM it was 6.34 µM; in the data set with HepG2 [12], 4.89 µM; in the data set with TERT-RPE1 [16], greater than 50 µM; with PANC-1 [20], 25.7 µM.
For the compound `CCOc1ccc2nc(Cl)c(/C=N/NC(=O)c3cc4cc([N+](=O)[O-])ccc4oc3=O)cc2c1`, the Activity was 2.13% in the data set with hTERT-BJ [1]; “Dose-dependent effect” in the data set on HepG2 [2]; 5.6% in the data set on TERT-RPE1 [3]; 3.92% in the data set on TERT-RPE1 [5]; 3.33% in the data set with hTERT-BJ [6]; 1.38% in the data set on hTERT-BJ [9]. Besides, the Activity with hTERT-BJ [13] was 1.58%; with TERT-RPE1 [14] it was 1.74%; in the data set with TERT-RPE1 [15] it was 10.48%; in the data set with PANC-1 [18] it was “Dose-dependent effect”. Moreover, the selectivity ratio in data set [4] was greater than 2.77; in data set [7], greater than 2.77; in [10], greater than 3.19; in [11], greater than 3.19; in [17], greater than 4.75; in data set [19] it was greater than 4.75. The IC50 was greater than 50 µM in the data set with hTERT-BJ [8]; 15.7 µM in the data set on CCRF-CEM; 18.1 µM in the data set with HepG2 [12]; greater than 50 µM in the data set with TERT-RPE1 [16]; 10.5 µM with PANC-1 [20].
